Where a name gives a salt, the structure may show the parent alone.

The first assay can be described thus: Inhibition of human classical pathway Complement system assessed as inhibition of complement mediated hemolysis of sensitized sheep RBCs using fresh human sera by Weissman method.
Conditions: not given; call rule not given here
The term IC50 denotes the midpoint of a concentration-inhibition curve. With `C[C@@H]1CC[C@H](O)C(C)(C)[C@]12Cc1cc(C(=O)[O-])cc(CC(=O)O)c1O2.[Na+]`, the IC50 entry is listed as “Not Active”.

The assay is the same for the next values; noted with them: read-out: IC50.
With `C[C@@H]1CC[C@H](O)C(C)(C)[C@]12Cc1cc(C(=O)O)cc(/C=C/C(=O)O)c1O2`, the IC50 is 970 µM.
Regarding `C[C@@H]1CC[C@H](O)C(C)(C)[C@]12Cc1cc(C(=O)O)cc([N+](=O)[O-])c1O2`, the concentration for half-maximal inhibition (IC50) was determined as 1880 µM.
`C[C@@H]1CC[C@H](O)C(C)(C)[C@]12Cc1cc(C(=O)O)cc(-c3ccc(C(=O)O)cc3)c1O2`: the IC50 was 18000 µM.
Same read-out and setting: the same measure for `C[C@@H]1CC[C@H](O)C(C)(C)[C@]12Cc1cc(C(=O)O)cc(I)c1O2`: 1140 µM.
On the same count and under the same terms, under `C[C@@H]1CC[C@H]2C(C)(C)[C@H](O)[C@H](O)C[C@]2(C)[C@@]12Cc1c(O)cc(C(=O)O)c(C=O)c1O2` stands 570 µM; under `C[C@@H]1CC[C@H](O)C(C)(C)[C@]12Cc1cc(C(=O)O)ccc1O2` [FILIFOLINOIC ACID SODIUM SALT], 2000 µM.
On the same count and under the same terms, under `C[C@@H]1CC[C@H](O)C(C)(C)[C@]12Cc1cc(C(=O)O)cc(N)c1O2` stands 7270 µM; under `CC1(C)CC[C@]2(C(=O)O)CC[C@]3(C)C(=CC[C@@H]4[C@@]5(C)CC[C@H](OC(=O)COCC(=O)O)C(C)(C)[C@@H]5CC[C@]43C)[C@@H]2C1` [OLEANOLIC ACID HEMIDIGLYCOLATE SODIUM SALT], 31 µM; under `C[C@@H]1CC[C@H](O)C(C)(C)[C@]12Cc1cc(C(=O)O)cc(CC(O)CO)c1O2` (mixture of isomers), 360 µM.
Turning to `C[C@@H]1CC[C@H](O)C(C)(C)[C@]12Cc1cc(C(=O)O)cc(CCC(=O)O)c1O2`, the IC50 was determined as 360 µM.
For `C[C@@H]1CC[C@H](O)C(C)(C)[C@]12Cc1cc(C(=O)O)cc(C(=O)O)c1O2`, the half-inhibitory concentration (IC50) was determined as 7000 µM.
On the same count and under the same terms, the same measure for `C[C@@H]1CC[C@H](O)C(C)(C)[C@]12Cc1cc(C(=O)O)cc(Cl)c1O2`: 1540 µM; for `C[C@@H]1CC[C@H](O)C(C)(C)[C@]12Cc1cc(C(=O)O)cc(C(F)(F)F)c1O2`: 100 µM; for `C[C@@H]1CC[C@H](O)C(C)(C)[C@]12Cc1cc(C(=O)O)cc(Br)c1O2`: 840 µM.
On the same count and under the same terms, the same measure for `C[C@@H]1CC[C@H](O)C(C)(C)[C@]12Cc1cc(C(=O)O)cc(-c3ccccc3)c1O2`: 140 µM.

For the origin of these results see ChEMBL document CHEMBL2062396, “Synthesis and classical pathway Complement inhibitory activity of C7-functionalized filifolinol derivatives, inspired in K-76 COOH” (Eur J Med Chem, 2012).
